Results as given in the supplement of paper PMC5770543.
± gives the standard deviation.

Legend:
[1] = molecular target: Toxoplasma gondii RH tachyzoites; assay: EC50 growth inhibition (48 h luciferase)
[2] = tested on: Plasmodium falciparum 3D7; assay: EC50 growth inhibition (60 h, SYBR Green); conditions: stage: ring-stage start
[3] = tested on: Toxoplasma gondii RH tachyzoites; assay: % growth inhibition vs DMSO (48 h luciferase); higher = more inhibition; conditions: 10 µM
[4] = tested on: Plasmodium falciparum 3D7; assay: % inhibition of schizont-to-ring transition vs DMSO; higher = more inhibition
Outline: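 Schizont-to-ring transition inhibition compares new ring formation with that in vehicle controls. Synchronised P. falciparum schizonts (about 40–42 hours post-invasion, 1% parasitemia, 2.5% hematocrit, AlbuMAX-supplemented RPMI) were exposed to 1, 3 or 10 µM compound, after which rings were counted by Hoechst 33342 flow cytometry across three experiments.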
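For % growth inhibition vs DMSO (48 h luciferase) in this document: tested in triplicate wells of 96-well plates on confluent HFF monolayers, with 1% DMSO wells as negative control in four replicates.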

Compound	EC50 growth inhibition [1] [nM]	EC50 growth inhibition [2] [nM]	% growth inhibition [3] [%]	% inhibition of schizont-to-ring transition ([4]; 1 µM) [%]	% inhibition of schizont-to-ring transition ([4]; 3 µM) [%]	% inhibition of schizont-to-ring transition ([4]; 10 µM) [%]
Oc1ccc2ccccc2c1CNc1nc2ccccc2[nH]1	430	2930	95.1 ± 1.9	41.7	57.8	70.5
CCN(CC)c1cc(C)c2cc(NC(=O)c3cccc(OC)c3)ccc2n1	1810	1300	98.73 ± 0.42	25.4	31.7	56.8
O=C(NCCCN1CCC(N2CCCCC2)CC1)C1=Cc2cc(Br)ccc2OC1	2690	348	88.9 ± 1.1	27	57.9	66.7
COc1ccc(-c2nonc2NC(=O)c2cccc(Cl)c2)cc1OC	35.3	1170	84.3 ± 0.96	36.5	56.1	71
COc1ccc(Nc2nc(N/N=C/c3ccc(O)cc3)nc(Nc3ccc([N+](=O)[O-])cc3)n2)cc1	2630	1100	100.2 ± 0.27	20.8	44	63
CCOc1ccc(-c2nonc2NC(=O)c2cccc(C)c2)cc1OCC	1620	374	96.5 ± 1.9	81.4	80	78.5
CC(Oc1ccc(NC(=O)c2cccs2)cc1)C(=O)c1ccc(Cl)cc1 (stereo not drawn)	257	462	98.06 ± 0.7	17.7	30.4	47.3
COc1cccc(Nc2nc(NCCO)c3ccccc3n2)c1	1090	456	97.5 ± 1.6	39.7	60.8	65.6
Nc1ccc(-c2nc3cc(Oc4ccc(Oc5ccc6[nH]c(-c7ccc(N)cc7)nc6c5)cc4)ccc3[nH]2)cc1	1610	253	100.27 ± 0.078	23.6	43.2	60.7
O=C(Nc1ccc(Cl)c(Cl)c1)Nc1ccc(Cl)c(Cl)c1	196	7140	100.5 ± 0.22	15.3	29.9	72.5
CCCCCCn1c(=N)n(CC(O)COc2cccc(C)c2)c2ccccc21 (stereo not drawn)	2090	1130	99.65 ± 0.38	7.26	18.9	72.6
Cc1sc(NC(=O)c2ccco2)c(C(c2cccnc2)N2CCC(Cc3ccccc3)CC2)c1C (stereo not drawn)	1120	833	99.83 ± 0.14	6.59	41.7	62.4
CC1CC2=C(CC1CNCCCN(C)C)C(C)(C)CCC2 (stereo not drawn)	3170	618	99.59 ± 0.27	9.39	52.2	73.9
COc1ccc2c(=O)cc(C(Cl)(Cl)Cl)oc2c1	1130	2900	84.4 ± 9.2	37.9	45	55.2
O=C(NC(c1ccccc1)c1ccc2cccnc2c1O)c1ccccc1 (stereo not drawn)	770	3660	99.71 ± 0.23	13.5	35.6	53.7
COc1ccc(C(O)(CCC(C)C)C(CN2CCOCC2)c2ccc(Cl)cc2)cc1 (stereo not drawn)	4870	2090	100.9 ± 0.49	8.88	11.2	32.8
CN(C)CCCNCc1ccc(-c2ccc(F)c(Cl)c2)o1	1660	601	92.8 ± 3.3	12.5	38.8	63.5
Cc1cc(N(C)C)nc(Nc2ccc(NC(=O)Nc3ccccc3)cc2)n1	1990	236	95.4 ± 1.2	41.8	56.5	71.1
CN(C)CCCNc1c2ccccc2nc2ccccc12	1480	92.8	100.3 ± 0.38	28.1	37.7	40.7
COCCNCC(O)Cn1c2ccc(Cl)cc2c2cc(Cl)ccc21 (stereo not drawn)	6290	700	99.95 ± 0.13	5.35	32.1	67.1
OC1=C2C(=Nc3ccccc3SC2c2ccc(Br)cc2)c2ccccc21 (stereo not drawn)	803	588	99.19 ± 0.75	19.5	33.4	45.5
COc1cccc(NC(=O)Cn2c(C)c(C#N)c3ccccc32)c1	905	231	94.39 ± 0.68	56.8	75.8	77.4
O=C(Nc1ccc(F)c(Cl)c1)Nc1ccc(Cl)c(Cl)c1	346	3980	100.1 ± 0.21	36.5	55.4	77.4
CCOc1ccc(-n2cc(-c3ccccc3)c3c(SCc4cc(C)ccc4C)ncnc32)cc1	3170	–	86.5 ± 1.3	1.01	7.47	15.8
COc1ccc(C(=O)NC(c2ccccc2Cl)c2cc(Cl)c3cccnc3c2O)cc1 (stereo not drawn)	592	–	96.55 ± 0.71	13.2	31.2	57.7
